Reference: the NIST ThermoML archive (doi:10.1016/j.jct.2017.09.022)

Experiment: molar heat capacity at constant pressure
Settings: 101.33 kPa, Crystal, Small (less than 1 g) adiabatic calorimetry

C[C@@H](O)[C@H](N)C(=O)O [L-threonine]
Settings	molar heat capacity at constant pressure [J/K/mol]
145.26 K	88.8
146.21 K	89.13
147.15 K	89.63
148.1 K	90.13
149.05 K	90.63
150 K	90.96
150.93 K	91.38
151.88 K	91.87
152.83 K	92.21
153.78 K	92.79
154.71 K	93.21
155.66 K	93.7
156.61 K	94.2
157.55 K	94.54
158.5 K	94.87
159.44 K	95.37
160 K	95.62
160.38 K	95.7
161.33 K	96.12
162.27 K	96.7
163.21 K	97.03
164.16 K	97.53
165.1 K	98.03
166.02 K	98.36
166.96 K	98.78
167.9 K	99.11
168.84 K	99.69
169.78 K	100.02
170 K	100.19
170.72 K	100.44
171.66 K	100.85
172.6 K	101.27
173.54 K	101.6
174.48 K	102.1
175.42 K	102.6
176.34 K	103.02
177.28 K	103.43
178.21 K	103.76
179.15 K	104.35
180 K	104.6
180.08 K	104.6
180.99 K	104.93
181.93 K	105.34
182.86 K	105.84
183.79 K	106.34
184.73 K	106.67
185.66 K	107.09
186.59 K	107.51
187.52 K	107.92
188.45 K	108.25
189.38 K	108.75
190 K	109
190.32 K	109.09
191.25 K	109.5
192.18 K	110
193.1 K	110.25
194.03 K	110.67
194.96 K	111.08
195.86 K	111.5
196.79 K	111.83
197.72 K	112.33
198.65 K	112.66
199.57 K	112.99
200 K	113.33
200.62 K	113.49
201.78 K	114.07
202.93 K	114.57
204.09 K	115.07
205.25 K	115.65
206.41 K	116.15
207.57 K	116.57
208.73 K	117.07
209.9 K	117.57
210 K	117.57
211.06 K	118.07
212.23 K	118.65
213.35 K	119.06
214.52 K	119.56
215.69 K	119.98
216.86 K	120.48
218.03 K	120.89
219.2 K	121.47
220 K	121.81
220.37 K	121.97
221.54 K	122.56
222.71 K	122.97
223.89 K	123.47
225.06 K	123.97
226.24 K	124.55
227.41 K	125.05
228.59 K	125.47
229.77 K	125.96
230 K	126.13
230.95 K	126.38
232.1 K	126.96
233.28 K	127.54
234.46 K	128.29
235.64 K	128.62
236.82 K	129.04
238 K	129.62
239.18 K	130.04
240 K	130.37
240.37 K	130.54
241.55 K	131.04
242.74 K	131.45
243.92 K	132.03
245.11 K	132.53
246.3 K	132.95
247.49 K	133.61
248.68 K	134.03
249.87 K	134.53
250 K	134.69
251.05 K	134.94
252.25 K	135.36
253.44 K	135.86
254.64 K	136.69
255.83 K	137.11
257.02 K	137.94
258.22 K	138.44
259.42 K	138.77
260 K	138.93
260.62 K	139.27
261.82 K	139.85
263.02 K	140.35
264.22 K	140.68
265.42 K	141.43
266.63 K	142.01
267.84 K	142.43
269.05 K	142.93
270 K	143.26
270.25 K	143.34
271.46 K	144.09
272.67 K	144.42
273.88 K	145.17
275.09 K	145.5
276.3 K	145.92
277.52 K	146.42
278.73 K	146.83
279.95 K	147.5
280 K	147.58
281.17 K	147.91
282.39 K	148.5
283.61 K	149
284.84 K	149.49
286.06 K	149.99
287.29 K	150.57
288.48 K	151.16
289.71 K	151.74
290 K	151.82
290.94 K	152.24
292.17 K	152.65
293.4 K	153.57
294.63 K	153.65
295.86 K	154.4
297.1 K	154.82
298.15 K	155.31
298.33 K	155.4
299.57 K	155.98
300 K	155.98
301.28 K	156.31
303.43 K	157.14
305.56 K	157.97
307.69 K	158.56
309.8 K	159.55
310 K	159.55
311.9 K	160.3
313.99 K	161.13
316.05 K	161.88
318.12 K	162.8
320 K	163.46
320.16 K	163.55
322.2 K	164.21
324.22 K	164.88
326.23 K	165.71
328.22 K	166.29
330 K	166.87
330.18 K	166.95
332.14 K	167.54
333.96 K	168.2
335.89 K	168.95
337.81 K	169.7
339.72 K	170.36
340 K	170.61
341.6 K	171.28
343.43 K	172.36
345.28 K	172.77
347.12 K	173.69
348.93 K	174.44
350 K	174.94
350.73 K	175.19
352.45 K	175.85
354.22 K	176.68
355.96 K	177.35
357.68 K	177.93
359.39 K	178.59
360 K	178.76
361.08 K	179.26
362.43 K	179.59
364.01 K	180.17
365.64 K	180.84
367.26 K	181.17
368.85 K	181.84
370 K	182.25
370.42 K	182.5
371.97 K	182.83
